From ChEMBL document CHEMBL1201862, “PubChem BioAssay data set” (2004)
pIC50: −log10 of the molar value. Active and inactive are the calls of the source.

How the values were obtained:
[1] = NIH-3T3 fibroblast cytotoxicity, dose response, cytotoxicity control, cell-based, fluorescence, Alamar Blue, secondary assay (AID 2327); format: functional;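 further: NIH-3T3 mouse fibroblasts cultured with fluconazole at 8 µg/mL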
HeLa = test: Cytotoxicity counterscreen assay for transcriptional activators of heat shock protein 70 (Hsp70). [Related pubchem assays: 1203, 1252 ]; format: functional; conditions: Homo sapiens;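 further: cells exposed to compound for 16 hours before readout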
Beta-galactosidase [2] = target: T1, Beta-galactosidase (Escherichia coli, UniProt Q8VNN2); test: PubChem AID 485352; format: functional
T1 sequence (Q8VNN2 whole entry): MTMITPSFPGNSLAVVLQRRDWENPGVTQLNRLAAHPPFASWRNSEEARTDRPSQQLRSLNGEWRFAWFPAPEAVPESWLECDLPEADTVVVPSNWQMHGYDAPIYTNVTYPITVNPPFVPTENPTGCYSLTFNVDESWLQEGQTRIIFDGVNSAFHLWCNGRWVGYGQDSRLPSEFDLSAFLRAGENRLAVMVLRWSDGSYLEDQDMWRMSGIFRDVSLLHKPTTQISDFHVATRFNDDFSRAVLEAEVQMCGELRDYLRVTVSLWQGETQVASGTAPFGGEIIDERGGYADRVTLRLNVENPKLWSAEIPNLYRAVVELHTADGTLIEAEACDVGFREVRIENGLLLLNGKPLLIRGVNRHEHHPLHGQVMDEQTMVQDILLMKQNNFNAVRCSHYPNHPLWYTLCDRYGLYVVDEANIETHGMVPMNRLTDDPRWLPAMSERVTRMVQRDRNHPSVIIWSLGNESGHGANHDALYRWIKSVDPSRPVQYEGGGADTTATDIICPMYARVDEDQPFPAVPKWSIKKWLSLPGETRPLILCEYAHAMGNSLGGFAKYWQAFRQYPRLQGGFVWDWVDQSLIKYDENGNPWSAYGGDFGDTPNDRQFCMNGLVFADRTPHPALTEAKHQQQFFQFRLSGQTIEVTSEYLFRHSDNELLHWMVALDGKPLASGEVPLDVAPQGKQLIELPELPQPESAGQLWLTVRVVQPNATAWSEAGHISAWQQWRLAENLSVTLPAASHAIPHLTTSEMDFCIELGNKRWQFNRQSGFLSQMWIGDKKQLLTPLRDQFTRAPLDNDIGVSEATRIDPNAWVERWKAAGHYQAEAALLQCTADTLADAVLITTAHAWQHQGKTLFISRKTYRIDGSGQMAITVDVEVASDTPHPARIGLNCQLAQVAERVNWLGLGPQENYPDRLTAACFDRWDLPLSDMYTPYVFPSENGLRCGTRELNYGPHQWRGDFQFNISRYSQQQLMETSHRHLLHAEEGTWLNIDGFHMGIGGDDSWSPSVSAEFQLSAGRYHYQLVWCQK

[3] = fluconazole-exposed Candida albicans growth modulators – fluorescence, retest, confirmation (AID 2467); format: functional, cell-based
[4] = target: T2, Type-1 angiotensin II receptor (Homo sapiens, UniProt P30556); test: antagonism of angiotensin II type 1 receptor – cell-based, uHTS hits, selectivity assay for APJ receptor antagonist project, dose response (AID 463214); format: functional;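 further: antagonist potency against angiotensin II stimulated AT1 response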
T2 sequence (P30556 whole entry): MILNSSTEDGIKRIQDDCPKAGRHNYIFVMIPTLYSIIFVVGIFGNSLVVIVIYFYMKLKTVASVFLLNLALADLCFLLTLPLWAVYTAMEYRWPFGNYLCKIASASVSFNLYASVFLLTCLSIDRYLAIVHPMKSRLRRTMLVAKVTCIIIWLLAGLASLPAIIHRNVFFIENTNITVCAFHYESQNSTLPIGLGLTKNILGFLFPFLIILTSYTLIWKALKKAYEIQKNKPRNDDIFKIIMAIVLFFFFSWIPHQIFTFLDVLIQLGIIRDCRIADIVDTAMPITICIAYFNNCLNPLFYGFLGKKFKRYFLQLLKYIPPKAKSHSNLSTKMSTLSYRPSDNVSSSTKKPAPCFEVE

[5] = target: T3, Kappa-type opioid receptor (Homo sapiens, UniProt P41145); format: functional
T3 sequence (P41145 whole entry): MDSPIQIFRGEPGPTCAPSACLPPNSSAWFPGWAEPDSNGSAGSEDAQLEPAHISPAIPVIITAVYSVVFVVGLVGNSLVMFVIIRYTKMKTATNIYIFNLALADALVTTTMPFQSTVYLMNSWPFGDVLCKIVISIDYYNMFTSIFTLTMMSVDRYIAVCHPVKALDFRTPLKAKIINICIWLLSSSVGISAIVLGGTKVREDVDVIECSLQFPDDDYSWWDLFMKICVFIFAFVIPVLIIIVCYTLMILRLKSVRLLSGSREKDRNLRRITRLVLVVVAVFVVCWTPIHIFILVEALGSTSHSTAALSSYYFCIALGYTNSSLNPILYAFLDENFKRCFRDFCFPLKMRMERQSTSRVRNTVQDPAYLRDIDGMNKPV

Beta-galactosidase [6] = target: T1, Beta-galactosidase; format: functional
[7] = target: Sphingosine 1-phosphate receptor 4 (Homo sapiens, UniProt O95977); test: Fluorescence dose response cell-based high throughput screening assay for antagonists of the Sphingosine 1-Phosphate Receptor 4 (S1P4). [Related pubchem assays: 1524 (Confirmation in triplicates.), 1510 (Primary screen.)]; format: functional
Sphingosine 1-phosphate receptor 4, sequence (O95977 whole entry): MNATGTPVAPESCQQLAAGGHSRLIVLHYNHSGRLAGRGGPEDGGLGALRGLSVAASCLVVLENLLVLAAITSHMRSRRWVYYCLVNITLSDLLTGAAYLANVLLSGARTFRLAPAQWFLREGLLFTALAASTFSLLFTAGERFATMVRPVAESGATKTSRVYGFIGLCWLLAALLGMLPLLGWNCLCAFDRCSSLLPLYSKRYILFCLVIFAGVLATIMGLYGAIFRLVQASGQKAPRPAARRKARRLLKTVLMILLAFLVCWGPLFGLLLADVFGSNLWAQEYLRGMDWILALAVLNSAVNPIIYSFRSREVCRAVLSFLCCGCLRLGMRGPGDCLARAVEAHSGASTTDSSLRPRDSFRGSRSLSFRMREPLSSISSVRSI

[8] = target: T3, Kappa-type opioid receptor; format: functional; remark: listed apart in the source
[9] = target: Sphingosine 1-phosphate receptor 1 (Homo sapiens, UniProt P21453); format: functional;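 further: Tango beta-arrestin reporter U2OS cells stimulated with S1P near its EC80; inhibitor potency meaning antagonism of receptor activation by the natural agonist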
Sphingosine 1-phosphate receptor 1, sequence (P21453 whole entry): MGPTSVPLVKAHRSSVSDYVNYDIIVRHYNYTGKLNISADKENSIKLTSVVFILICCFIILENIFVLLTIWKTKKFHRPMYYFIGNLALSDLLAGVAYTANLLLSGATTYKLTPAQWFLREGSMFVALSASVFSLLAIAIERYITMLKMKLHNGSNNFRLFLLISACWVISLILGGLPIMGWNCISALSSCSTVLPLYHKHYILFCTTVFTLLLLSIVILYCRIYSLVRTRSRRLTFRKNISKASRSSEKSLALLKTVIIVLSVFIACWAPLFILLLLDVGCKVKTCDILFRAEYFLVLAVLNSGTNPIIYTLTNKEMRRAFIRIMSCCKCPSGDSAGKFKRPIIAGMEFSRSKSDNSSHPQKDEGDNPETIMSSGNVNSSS

[10] = target: T4, Replicative DNA helicase DnaB (Mycobacterium tuberculosis, UniProt P9WMR3); test: DnaB intein splicing inhibitors, dose response, biochemical, cell-free fluorescence (AID 449749); format: functional
T4 sequence (P9WMR3 whole entry): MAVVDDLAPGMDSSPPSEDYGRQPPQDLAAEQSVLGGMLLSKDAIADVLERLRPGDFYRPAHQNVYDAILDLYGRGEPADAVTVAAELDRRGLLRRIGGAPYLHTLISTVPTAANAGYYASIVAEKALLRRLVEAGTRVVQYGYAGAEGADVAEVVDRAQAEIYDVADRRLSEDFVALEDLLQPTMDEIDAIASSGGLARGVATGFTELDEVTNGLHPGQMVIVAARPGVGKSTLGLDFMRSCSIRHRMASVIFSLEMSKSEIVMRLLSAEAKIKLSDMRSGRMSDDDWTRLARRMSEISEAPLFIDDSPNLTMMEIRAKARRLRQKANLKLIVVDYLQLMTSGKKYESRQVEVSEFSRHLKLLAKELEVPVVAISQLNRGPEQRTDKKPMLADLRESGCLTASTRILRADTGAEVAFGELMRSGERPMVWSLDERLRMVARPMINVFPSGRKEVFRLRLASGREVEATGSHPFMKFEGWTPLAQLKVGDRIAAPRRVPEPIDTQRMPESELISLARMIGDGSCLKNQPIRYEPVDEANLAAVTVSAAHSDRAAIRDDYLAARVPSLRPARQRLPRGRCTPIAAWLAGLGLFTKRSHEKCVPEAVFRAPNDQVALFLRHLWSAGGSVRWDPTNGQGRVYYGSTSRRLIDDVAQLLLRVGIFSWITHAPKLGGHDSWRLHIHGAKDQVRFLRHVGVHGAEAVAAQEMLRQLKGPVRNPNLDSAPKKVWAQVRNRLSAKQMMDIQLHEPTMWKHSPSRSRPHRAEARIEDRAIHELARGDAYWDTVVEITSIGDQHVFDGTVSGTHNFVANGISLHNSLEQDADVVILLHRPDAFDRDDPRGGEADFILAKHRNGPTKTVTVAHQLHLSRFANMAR

[11] = target: Heat shock protein HSP 90-alpha (Homo sapiens, UniProt P07900); format: functional, organism-based
BJ = test: growth inhibition of engineered Ras-driven BJ cells – cell-based, alamar blue fluorescence, cherrypicked samples, dose response (AID 2631); format: functional; conditions: Homo sapiens;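 further: confirmatory dose-response assay in RAS-dependent BJ fibroblasts engineered with TERT, LT and ST, with cytotoxicity read by fluorescence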
Protein RecA = target: T5, Protein RecA (Mycobacterium tuberculosis, UniProt P9WHJ3); test: Fluorescence Cell-Free Homogeneous Dose Retest to Identify Inhibitors of RecA-Intein Splicing Activity. [Related pubchem assays (depositor defined):AID2097, AID2223, AID489010, AID492950]; format: functional
T5 sequence (P9WHJ3 whole entry): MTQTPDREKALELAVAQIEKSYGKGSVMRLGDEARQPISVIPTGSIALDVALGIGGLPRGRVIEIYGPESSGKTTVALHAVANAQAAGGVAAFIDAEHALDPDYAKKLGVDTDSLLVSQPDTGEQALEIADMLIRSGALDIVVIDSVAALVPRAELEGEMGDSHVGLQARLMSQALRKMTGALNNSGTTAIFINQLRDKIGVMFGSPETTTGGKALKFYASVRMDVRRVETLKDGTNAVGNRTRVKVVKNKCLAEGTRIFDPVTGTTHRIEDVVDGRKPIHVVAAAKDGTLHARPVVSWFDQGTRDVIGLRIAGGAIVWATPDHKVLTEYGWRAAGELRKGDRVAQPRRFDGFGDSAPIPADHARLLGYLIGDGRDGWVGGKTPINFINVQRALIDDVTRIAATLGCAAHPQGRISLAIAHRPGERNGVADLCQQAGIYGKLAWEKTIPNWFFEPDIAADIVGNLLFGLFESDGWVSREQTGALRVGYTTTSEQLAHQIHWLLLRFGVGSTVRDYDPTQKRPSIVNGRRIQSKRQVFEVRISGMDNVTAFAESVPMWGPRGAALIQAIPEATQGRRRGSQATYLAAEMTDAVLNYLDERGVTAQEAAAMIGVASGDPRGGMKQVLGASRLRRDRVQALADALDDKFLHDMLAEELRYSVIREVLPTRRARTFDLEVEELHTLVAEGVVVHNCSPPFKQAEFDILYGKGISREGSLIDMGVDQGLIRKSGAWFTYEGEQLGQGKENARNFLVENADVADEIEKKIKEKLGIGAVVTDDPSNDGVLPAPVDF

[12] = reduced cellular PGC1a acetyl-lysine signal – cell-based, cherry-picked samples, dose response (AID 720514); format: functional;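 further: potency may reflect raised or lowered acetylation signal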
[13] = A549 cell cytotoxicity, dose response, cytotoxicity control, plate reader, cherry-pick, antagonist series (AID 743412); format: functional, cell-based
[14] = toxicity toward HepG2 liver cells – cell-based, plate reader, cherry-pick, antagonist series, cytotoxicity control, dose response (AID 743416); format: functional
[15] = blockers of bursicon-stimulated LGR2 cAMP reporter – cell-based, HEK293, CRE-luciferase reporter, cherry pick, set 2, dose response (AID 743343); format: functional;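 further: transfected cells were stimulated with diluted bursicon conditioned medium after compound addition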
[16] = blockade of melanocortin 4 receptor signaling – cell-based, plate reader, cherry pick, counter-screen for LGR2 antagonist project, dose response (AID 743444); format: functional;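 further: transfected HEK 293 cells stimulated with alpha-MSH peptide; potency of inhibitors of the alpha-MSH evoked signal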
[17] = viability loss in HEK293 cells – cell-based, plate reader, cherry-picked samples, cytotoxicity control, dose response (AID 743446); format: functional
Vero [18] = test: Vero 76 cell viability after compound exposure – Vero 76 cells, synthesized analogs, cytotoxicity control for West Nile virus antiviral project, SAR follow-up (AID 2414); format: functional; conditions: Chlorocebus sabaeus
Vero [19] = test: Vero cell viability after compound exposure – synthesized analogs, set II, cytotoxicity control for West Nile virus antiviral project, SAR follow-up (AID 2402); format: functional; conditions: Chlorocebus sabaeus
[20] = A Cell Based Assay for the Identification of Probe candidate Compounds with Anti- Venezuelan Equine Encephalitis virus. [Related pubchem assays: 2409, 2419, 1621, 2238, 2405, 2024, 2065, 2402, 2414, 1635, 1650, 2244 ]; format: functional

With CC(C)(C)c1ccc(-n2nc(C#N)c(Cl)cc2=O)cc1 the EC50 [1] was 5.04 µM (inconclusive), the CC50 (HeLa) was > 3.67 µM (not active) and the EC50 (Beta-galactosidase [2]) was > 40 µM (inactive). For the same molecule, the EC50 [3] was > 38 µM (not active), the IC50 [4] was 38.5 µM (not active) and the IC50 [5] was 3.68 µM (active). For the same molecule, the EC50 (Beta-galactosidase [6]) was > 31.5 µM (inactive), the IC50 [7] was 1.87 µM (active) and the pIC50 [8] was 5.40. For the same molecule, the IC50 [9] was 9.04 µM (active), the AC50 [10] was 0.746 µM (active) and the AC50 [11] was 3.8 µM (active). For the same molecule, the EC50 (BJ) was 1.13 µM (active), the EC50 (Protein RecA) was 0.989 µM (active) and the AC50 [12] was 2.85 µM (active). For the same molecule, the AC50 [13] was 2.83 µM (active), the AC50 [14] was 2.81 µM (active) and the AC50 [15] was 12 µM (active). The AC50 [16] was 14.4 µM (active) and the AC50 [17] was 6.44 µM (active).

In the case of Cc1cccc2c(=O)n(-c3ccccc3)c(SCC(=O)Nc3ccc4c(c3)CCC4)nc12, the CC50 (Vero [18]) was > 133 µM (active), the CC50 (Vero [19]) was > 200 µM (active) and the IC50 [20] was > 133 µM (active).
